Where two headings read alike, the source gives them in different places. Where a SMILES comes first, the peptide text is derived from it. [ ]: non-standard residue; d: D form. Where only a bound is given, the exact number is not on record here.

As usually defined, the IC50 is the point on the concentration scale where inhibition reaches its midpoint.

One assay has as its system HSV-1 F. The class given is cell-based. The conditions noted are these: plaque reduction, HSV-1 F on Vero cell monolayers, peptide pretreatment 25 hours, replication 2 to 3 days. On the procedure:
Selected compounds were first formulated as 10 mM stocks in water for in vitro and cell culture procedures. The stocks are then diluted into buffers used for specific assays, or into cell culture media. For animal studies peptides are diluted into phosphate buffer saline.
Results of the plaque reduction assay performed with various peptides, expressed in terms of IC50 are tabulated below: […]

The test system of a further assay is HSV-1 strain F. The conditions noted are these: mice, foot-pad injections in PBS, one week pretreatment then three times weekly; particularly at the doses of 5 and 50µg/mouse. On the procedure:
After pretreatment, the left footpad was inflamed by injecting about 5 µL of 1M NaCl. After about 6 hours, the same footpad was abraded and a drop of HSV-1 strain F (2 x 10^3 pfu/ml) was then added deposited on the inflamed footpad.

Consider `CC(=O)N[C@H](CCCNC(=N)N)C(=O)N[C@H](CCCCN)C(=O)N[C@H](CCCCN)C(=O)N[C@H](CCCNC(=N)N)C(=O)N[C@H](CCCNC(=N)N)C(=O)N[C@H](CCC(N)=O)C(=O)N[C@H](CCCNC(=N)N)C(=O)N[C@H](CCCNC(=N)N)C(N)=O` (Ac-[dR][dK][dK][dR][dR][dQ][dR][dR]-NH2), for which the IC50 in the assay with HSV-1 F (read-out: IC50) is > 20 µM.
Take `CC(=O)N[C@H](CCCNC(=N)N)C(=O)N[C@H](CCCNC(=N)N)C(=O)N[C@H](CCCNC(=N)N)C(=O)N[C@H](CCCNC(=N)N)C(=O)N[C@H](CCCNC(=N)N)C(=O)N[C@H](CCCNC(=N)N)C(=O)N[C@H](CCCNC(=N)N)C(=O)N[C@H](CCCNC(=N)N)C(=O)N[C@H](CCCNC(=N)N)C(N)=O` [acetyl-[D-Arg]9-NH2]: the “anti-herpetic effect in vivo (Figure 3)” value with HSV-1 strain F was “anti-herpetic result”.
Consider `CC[C@H](C)[C@H](NC(=O)[C@H](C)NC(=O)[C@@H](NC(=O)[C@H](Cc1ccccc1)NC(C)=O)[C@@H](C)CC)C(=O)N[C@@H](C)C(=O)N[C@H](CCCNC(=N)N)C(=O)N[C@H](CCCCN)C(=O)N[C@H](CCCCN)C(=O)N[C@H](CCCNC(=N)N)C(=O)N[C@H](CCCNC(=N)N)C(=O)N[C@H](CCC(N)=O)C(=O)N[C@H](CCCNC(=N)N)C(=O)N[C@H](CCCNC(=N)N)C(N)=O` (Ac-FIAIA[dR][dK][dK][dR][dR][dQ][dR][dR]-NH2), for which the IC50 in the assay with HSV-1 F (read-out: IC50) turned out to be 10 µM.
`CC(=O)N[C@H](CCCNC(=N)N)C(=O)N[C@H](CCCNC(=N)N)C(=O)N[C@H](CCCNC(=N)N)C(=O)N[C@H](CCCNC(=N)N)C(=O)N[C@H](CCCNC(=N)N)C(=O)N[C@H](CCCNC(=N)N)C(=O)N[C@H](CCCNC(=N)N)C(N)=O` [acetyl-[D-Arg]7-NH2, acetyl-[D-(Arg)7]-NH2]: the IC50 result with HSV-1 F was “slight”.

The values are drawn from patent EP0637247B1, “TREATMENT OF HERPESVIRUS INFECTION” (priority 1992, dated 1993).
